In ChEMBL document CHEMBL6182912, “Development of Novel Phthalazinone-Triazole Hybrids as Potential Antidiabetic Agents Targeting GLUT4 Translocation in Skeletal Muscle” (J Med Chem, 2025):
Calls of active or inactive are those of the source. No cut-off for these calls is given here.

Experiments:
[1] = biological target: T1, Solute carrier family 2, facilitated glucose transporter member 4 (Rattus norvegicus) (UniProt P19357); assay: Modulation of GLUT4 translocation in rat L6-GLUT4myc skeletal muscle cells assessed as increase in surface GLUT4myc level by measuring fold stimulation at 10 uM measured after 16 hrs by O-phenylenediamine assay relative to control; format: cell-based; conditions: filed as modulator
T1 sequence (whole entry): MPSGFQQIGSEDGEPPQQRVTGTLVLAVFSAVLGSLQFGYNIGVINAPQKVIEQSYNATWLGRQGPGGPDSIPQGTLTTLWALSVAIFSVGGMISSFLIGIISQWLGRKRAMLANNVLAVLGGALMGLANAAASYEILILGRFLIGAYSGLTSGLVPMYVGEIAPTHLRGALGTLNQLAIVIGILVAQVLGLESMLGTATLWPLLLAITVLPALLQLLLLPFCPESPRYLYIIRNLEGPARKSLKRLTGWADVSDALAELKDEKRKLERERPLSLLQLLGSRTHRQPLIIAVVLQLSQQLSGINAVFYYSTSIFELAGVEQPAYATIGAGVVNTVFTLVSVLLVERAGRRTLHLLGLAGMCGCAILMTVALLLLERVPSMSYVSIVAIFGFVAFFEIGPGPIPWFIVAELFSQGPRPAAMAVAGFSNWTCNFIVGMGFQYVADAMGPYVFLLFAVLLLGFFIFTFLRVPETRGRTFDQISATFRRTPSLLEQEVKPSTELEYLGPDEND

[2] = biological target: T1, Solute carrier family 2, facilitated glucose transporter member 4 (Rattus norvegicus); assay: Modulation of GLUT4 translocation in rat L6-GLUT4myc skeletal muscle cells assessed as increase in surface GLUT4myc level measured after 16 hrs by O-phenylenediamine assay; format: cell-based; conditions: filed as modulator, dose 5-25 µM
[3] = biological target: T1, Solute carrier family 2, facilitated glucose transporter member 4 (Rattus norvegicus); assay: Modulation of GLUT4 translocation in rat L6-GLUT4myc skeletal muscle cells assessed as increase in surface GLUT4myc level by measuring fold stimulation at 500 uM measured after 16 hrs by O-phenylenediamine assay relative to control; format: cell-based; conditions: filed as modulator
[4] = biological target: T1, Solute carrier family 2, facilitated glucose transporter member 4 (Rattus norvegicus); assay: Modulation of GLUT4 translocation in rat L6-GLUT4myc skeletal muscle cells assessed as increase in surface GLUT4myc level by measuring fold stimulation at 1 mM measured after 1 hr by O-phenylenediamine assay relative to control; format: cell-based; conditions: filed as modulator
[5] = biological target: T1, Solute carrier family 2, facilitated glucose transporter member 4 (Rattus norvegicus); assay: Modulation of GLUT4 translocation in rat L6-GLUT4myc skeletal muscle cells assessed as increase in GLUT4 mRNA level at 10 uM incubated for 16 hrs by RT-PCR analysis; format: cell-based; conditions: filed as modulator
L6-GLUT4myc [6] = assay: Effect on IRS1 mRNA level in rat L6-GLUT4myc at 10 uM incubated for 16 hrs by RT-PCR analysis; format: functional, cell-based
[7] = Stability in SGF at pH 1.2 assessed as compound remaining measured after 120 mins by UPLC analysis; format: physicochemical; conditions: read-out: Stability
[8] = Stability in SIF at pH 6.8 assessed as compound remaining measured after 120 mins by UPLC analysis; format: physicochemical; conditions: read-out: Stability
[9] = biological target: T1, Solute carrier family 2, facilitated glucose transporter member 4 (Rattus norvegicus); assay: (§1) Modulation of insulin-stimulated GLUT4 translocation in rat L6-GLUT4myc skeletal muscle cells assessed as increase in surface GLUT4myc level at 10 uM pretreated with compound overnight and cultured final 3 hrs of compound treatment in serum-starved medium followed by insulin addition measured after 20 mins by O-phenylenediamine assay; format: cell-based; conditions: filed as modulator
[10] = Stability in SPF at pH 7.4 assessed as compound remaining measured after 120 mins by UPLC analysis; format: physicochemical; conditions: read-out: Stability
Rattus norvegicus [11] = assay: Anti-hyperglycemic effect in STZ-induced diabetic male Sprague-Dawley rat assessed as reduction in blood glucose level at 100 mg/kg, po measured after 5 hrs relative to control; format: functional; set-up: scale not given: the % may be the effect or the level left
[12] = biological target: T1, Solute carrier family 2, facilitated glucose transporter member 4 (Rattus norvegicus); assay: as §1, with “and wortmannin for 16 hrs” for “overnight”; format: cell-based; conditions: time 980.0 min
[13] = biological target: T1, Solute carrier family 2, facilitated glucose transporter member 4 (Rattus norvegicus); assay: Modulation of GLUT4 translocation in rat L6-GLUT4myc skeletal muscle cells assessed as increase in AMPK-alpha phosphorylation at Thr172 at 10 uM incubated for 16 hrs by Western blot analysis; format: cell-based; conditions: filed as modulator
[14] = Stability in rat plasma assessed as compound remaining measured after 120 mins by UPLC analysis; format: ADME, cell-free; conditions: read-out: Stability
Rattus norvegicus [15] = assay: Anti-hyperglycemic effect in STZ-induced diabetic male Sprague-Dawley rat assessed as reduction in blood glucose level at 100 mg/kg, po; format: functional, organism-based; conditions: time 30-300 min
L6-GLUT4myc [16] = assay: Effect on AKT2 mRNA level in rat L6-GLUT4myc at 10 uM incubated for 16 hrs by RT-PCR analysis; format: functional, cell-based
[17] = biological target: T1, Solute carrier family 2, facilitated glucose transporter member 4 (Rattus norvegicus); assay: Modulation of insulin-stimulated GLUT4 translocation in rat L6-GLUT4myc skeletal muscle cells assessed as increase in AKT phosphorylation Ser473 at 10 uM pretreated with compound and wortmannin for 16 hrs followed by insulin addition measured after 10 mins by Western blot analysis; format: cell-based; conditions: time 970.0 min
[18] = biological target: T1, Solute carrier family 2, facilitated glucose transporter member 4 (Rattus norvegicus); assay: Modulation of insulin-stimulated GLUT4 translocation in rat L6-GLUT4myc skeletal muscle cells assessed as increase in AKT phosphorylation Ser473 at 10 uM pretreated with compound for 16 hrs followed by insulin addition measured after 10 mins by Western blot analysis; format: cell-based; conditions: filed as modulator, time 970.0 min
[19] = biological target: T1, Solute carrier family 2, facilitated glucose transporter member 4 (Rattus norvegicus); assay: Modulation of insulin-stimulated GLUT4 translocation in rat L6-GLUT4myc skeletal muscle cells assessed as increase in AKT phosphorylation Ser473 pretreated with compound for 16 hrs followed by insulin addition measured after 10 mins by Western blot analysis; format: cell-based; conditions: time 970.0 min
[20] = biological target: T1, Solute carrier family 2, facilitated glucose transporter member 4 (Rattus norvegicus); assay: as §1, with “50 nM” for “10 uM”, “for 16 hrs” for “overnight”; format: cell-based; conditions: time 980.0 min
Rattus norvegicus [21] = assay: Anti-hyperglycemic effect in STZ-induced diabetic male Sprague-Dawley rat assessed as reduction in blood glucose level at 300 mg/kg, po measured after 5 hrs relative to control; format: functional; set-up: scale not given: the % may be the effect or the level left

Structure (SMILES) | fold change (FC) [1] | also measured
Cc1ccc(-n2cc(CNC(=O)c3ccc(Cc4n[nH]c(=O)c5ccccc45)cc3)nn2)cc1 | 0.77 | –
O=C(NCc1cn(-c2cccc3ccccc23)nn1)c1cc(Cc2n[nH]c(=O)c3ccccc23)ccc1F | 1.15 | –
O=C(OCc1cn(-c2ccc(Br)cc2)nn1)c1cc(Cc2n[nH]c(=O)c3ccccc23)ccc1F | 1.39 | –
COc1ccc(-n2cc(CNC(=O)c3cc(Cc4n[nH]c(=O)c5ccccc45)ccc3F)nn2)cc1 | 1.92 | Activity [2]: Dose-dependent-effect
O=C(OCc1cn(-c2ccccc2)nn1)c1cc(Cc2n[nH]c(=O)c3ccccc23)ccc1F | – | fold change (FC) [3]: 0.97
NC(=O)c1ncn([C@@H]2O[C@H](CO)[C@@H](O)[C@H]2O)c1N | – | fold change (FC) [4]: 1.56
Cc1ccc(-n2cc(COC(=O)c3ccc(Cc4n[nH]c(=O)c5ccccc45)cc3)nn2)cc1 | 0.9 | –
O=C(NCc1cn(-c2ccc(Cl)cc2)nn1)c1cc(Cc2n[nH]c(=O)c3ccccc23)ccc1F | 1.53 | –
COc1ccc(-n2cc(CNC(=O)c3ccc(Cc4n[nH]c(=O)c5ccccc45)cc3)nn2)cc1 | 1.12 | –
O=C(OCc1cn(-c2ccccc2)nn1)c1ccc(Cc2n[nH]c(=O)c3ccccc23)cc1 | 0.94 | –
COc1cccc(OC)c1-n1cc(CNC(=O)c2cc(Cc3n[nH]c(=O)c4ccccc34)ccc2F)nn1 | 1.31 | –
O=C(NCc1cn(-c2ccccc2)nn1)c1cc(Cc2n[nH]c(=O)c3ccccc23)ccc1F | 1.93 | Activity [5]: Active; Activity (L6-GLUT4myc [6]): No effect; remaining at 2 h [7]: ≤ 60%; remaining at 2 h [8]: ≤ 60%; Activity [9]: Active; remaining at 2 h [10]: ≤ 60%; Activity (Rattus norvegicus [11]): ~38.7%; Activity [12]: inactive; Activity [13]: Active; remaining at 2 h [14]: ≤ 60%; Activity [2]: Dose-dependent-effect; Activity (Rattus norvegicus [15]): Time-dependent-effect; Activity (L6-GLUT4myc [16]): No effect; Activity [17]: inactive; Activity [18]: Active
O=C(NCc1cn(-c2ccc(OC(F)(F)F)cc2)nn1)c1cc(Cc2n[nH]c(=O)c3ccccc23)ccc1F | 1.59 | –
Cc1ccc(-n2cc(COC(=O)c3cc(Cc4n[nH]c(=O)c5ccccc45)ccc3F)nn2)cc1 | 0.98 | –
COC[C@H]1OC(=O)c2coc3c2[C@@]1(C)C1=C(C3=O)[C@@H]2CCC(=O)[C@@]2(C)C[C@H]1OC(C)=O | – | Activity [19]: inactive; Activity [20]: inactive
COc1ccc(OC)c(-n2cc(CNC(=O)c3cc(Cc4n[nH]c(=O)c5ccccc45)ccc3F)nn2)c1 | 1.29 | –
COc1cc(-n2cc(CNC(=O)c3cc(Cc4n[nH]c(=O)c5ccccc45)ccc3F)nn2)cc(OC)c1OC | 1.08 | –
O=C(NCc1cn(-c2ccc(Cl)cc2)nn1)c1ccc(Cc2n[nH]c(=O)c3ccccc23)cc1 | 1.09 | –
COc1cccc(-n2cc(CNC(=O)c3cc(Cc4n[nH]c(=O)c5ccccc45)ccc3F)nn2)c1 | 1.4 | –
O=C(NCc1cn(-c2ccc(Br)cc2)nn1)c1ccc(Cc2n[nH]c(=O)c3ccccc23)cc1 | 0.89 | –
O=C(OCc1cn(-c2ccc(F)cc2)nn1)c1cc(Cc2n[nH]c(=O)c3ccccc23)ccc1F | 1.03 | –

Structure (SMILES) | fold change (FC) [1] | also measured
O=C(NCc1cn(-c2ccccc2F)nn1)c1cc(Cc2n[nH]c(=O)c3ccccc23)ccc1F | 0.86 | –
O=C(NCc1cn(-c2ccc(Cl)c(Cl)c2)nn1)c1cc(Cc2n[nH]c(=O)c3ccccc23)ccc1F | 1.49 | –
O=C(NCc1cn(-c2ccc(F)cc2)nn1)c1cc(Cc2n[nH]c(=O)c3ccccc23)ccc1F | 1.98 | –
O=C(NCc1cn(-c2cccc(F)c2)nn1)c1cc(Cc2n[nH]c(=O)c3ccccc23)ccc1F | 0.84 | –
Cc1ccc(-n2cc(CNC(=O)c3cc(Cc4n[nH]c(=O)c5ccccc45)ccc3F)nn2)cc1 | 1.92 | Activity [2]: Dose-dependent-effect
O=C(NCc1cn(-c2ccc(OC(F)(F)F)cc2)nn1)c1ccc(Cc2n[nH]c(=O)c3ccccc23)cc1 | 1.04 | –
O=C(NCc1cn(-c2ccc(Br)cc2)nn1)c1cc(Cc2n[nH]c(=O)c3ccccc23)ccc1F | 1.87 | –
C#CCNC(=O)c1ccc(Cc2n[nH]c(=O)c3ccccc23)cc1 | 1.17 | –
O=C(NCc1cn(-c2ccc(F)cc2)nn1)c1ccc(Cc2n[nH]c(=O)c3ccccc23)cc1 | 1.11 | –
CC(C)c1ccc(-n2cc(CNC(=O)c3cc(Cc4n[nH]c(=O)c5ccccc45)ccc3F)nn2)cc1 | 1.1 | –
CN(C)C(=N)NC(=N)N [METFORMIN] | – | fold change (FC) [3]: 1.65; Activity (Rattus norvegicus [21]): 64.7%
COc1ccc(-n2cc(COC(=O)c3cc(Cc4n[nH]c(=O)c5ccccc45)ccc3F)nn2)cc1 | 1.31 | –
COc1cccc(Cl)c1-n1cc(CNC(=O)c2cc(Cc3n[nH]c(=O)c4ccccc34)ccc2F)nn1 | 1.14 | –
O=C(NCc1cn(-c2ccccc2)nn1)c1ccc(Cc2n[nH]c(=O)c3ccccc23)cc1F | 1.36 | –
O=C(OCc1cn(-c2ccc(F)cc2)nn1)c1ccc(Cc2n[nH]c(=O)c3ccccc23)cc1 | 0.99 | –
O=C(NCc1cn(-c2ccc(F)cc2F)nn1)c1cc(Cc2n[nH]c(=O)c3ccccc23)ccc1F | 1.75 | –
O=C(OCc1cn(-c2ccc(Br)cc2)nn1)c1ccc(Cc2n[nH]c(=O)c3ccccc23)cc1 | 1.54 | –
O=C(NCc1cn(-c2ccccc2)nn1)c1ccc(Cc2n[nH]c(=O)c3ccccc23)cc1 | 1.48 | –
CC(C)c1ccc(-n2cc(COC(=O)c3cc(Cc4n[nH]c(=O)c5ccccc45)ccc3F)nn2)cc1 | 1.52 | –
COc1ccccc1-n1cc(CNC(=O)c2cc(Cc3n[nH]c(=O)c4ccccc34)ccc2F)nn1 | 1.01 | –
O=C(NCc1cn(-c2ccc(C(F)(F)F)cc2)nn1)c1cc(Cc2n[nH]c(=O)c3ccccc23)ccc1F | 1.77 | –
